In patent US6967196B1, “Sulfonamide compounds and uses thereof” (Bristol-Myers Squibb Company, priority 1999, dated 2005):
Counter-ions that a name gives are not always drawn.

What follows are compounds tested on amyloid β production in transfected H4 (human neuroglioma) cells stably expressing APP constructs (assay: In vitro cell-based assay of inhibitors of amyloid β production (ELISA)). Details: Homo sapiens, 16 h, transfected H4 cells expressing APP, approximately 16 hours incubation, amyloid β in medium by ELISA; read-out: ACTIVITY (IC50, inhibition of amyloid β production).
Method in brief: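 Plate wt/variant APP cells; ≥6 h later swap to medium + compound (10-100 μM screen); incubate ~16 h; sample medium; Aβ ELISA with C-terminal capture / N-terminal detection Abs; quantify vs Aβ standard curve.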

Row | IC50 | Compound
1 | ≤ 25 nM | C[C@H](COC(=O)NCCCn1ccnc1)N(c1cc(Cl)ccc1CO)S(=O)(=O)c1ccc(Cl)cc1 [Example 1285]
2 | > 500 nM | C[C@H](C(=O)NCc1ccc(F)c(F)c1)N(c1cc(Cl)ccc1F)S(=O)(=O)c1ccc(Cl)cc1 [Example 1334]
3 | > 500 nM | COc1ccc(CCNC(=O)[C@@H](C)N(c2cc(Cl)ccc2F)S(=O)(=O)c2ccc(Cl)cc2)cc1 [Example 1353]
4 | > 500 nM | COc1cc(CNC(=O)[C@@H](C)N(c2cc(Cl)ccc2F)S(=O)(=O)c2ccc(Cl)cc2)cc(OC)c1OC [Example 1362]

Same assay, conditions: Homo sapiens, 16 h, transfected H4 cells stably expressing APP constructs; approximately 16 hours incubation; amyloid β in medium by ELISA; read-out: ACTIVITY (IC50, inhibition of amyloid β production)

Row | Compound | IC50
5 | C[C@H](CCCS(=O)(=O)N(C)C)N(c1cc(Cl)ccc1CO)S(=O)(=O)c1ccc(Cl)cc1 [Example 1234, 4-chloro-N-[5-chloro-2-(hydroxymethyl)phenyl]-N-[4-[(dimethylamino)sulfonyl]-1(R)-methylbutyl]benzenesulfonamide] | ≤ 25 nM
6 | CC(CCCN=[N+]=[N-])N(c1cc(Cl)ccc1Cl)S(=O)(=O)c1ccc(Cl)cc1 (stereo not shown) [Example 1138, 4-chloro-N-(2,5-dichlorophenyl)-N-[4-(azido)-1-methylbutyl]benzenesulfonamide] | 100 to 500 nM
7 | C[C@H](COC(=O)N1CCCC1)N(c1cc(Cl)ccc1F)S(=O)(=O)c1ccc(Cl)cc1 [Example 1243, 4-Chloro-N-(2-fluoro-5-chlorophenyl)-N-[2-[[[pyrrolidin-1-yl]carbonyl]oxy]-(R)-1-methylethyl]benzenesulfonamide] | ≤ 25 nM
8 | COC(=O)NCCC[C@@H](C)N(c1cc(Cl)ccc1Cl)S(=O)(=O)c1ccc(Cl)cc1 [Example 1131, 4-chloro-N-(2,5-dichlorophenyl)-N-[4-[[(methoxy)carbonyl]amino]-1-methylbutyl]benzenesulfonamide] | 50 to 100 nM

Next, values leading:

Row | IC50 | Compound
9 | 100 to 500 nM | C[C@H](CCCNC(=O)c1ccccc1)N(c1cc(Cl)ccc1Cl)S(=O)(=O)c1ccc(Cl)cc1 [Example 1149, 4-chloro-N-(2,5-dichlorophenyl)-N-[4-[[(phenyl)carbonyl]amino]-1-methylbutyl]benzenesulfonamide]
10 | ≤ 25 nM | COC(=O)C1SCCN1CCC[C@@H](C)N(c1cc(Cl)ccc1Cl)S(=O)(=O)c1ccc(Cl)cc1 (stereo partly drawn) [Example 1105, 4-chloro-N-(2,5-dichlorophenyl)-N-[4-(2-methoxycarbonyl-3-thiazolidinyl)-1(R)-methylbutyl]benzenesulfonamide]
11 | 50 to 100 nM | CC(C)CNS(=O)(=O)CCC[C@@H](C)N(c1cc(Cl)ccc1Cl)S(=O)(=O)c1ccc(Cl)cc1 [Example 1216, 4-chloro-N-[2,5-dichlorophenyl]-N-[4-[(2-methylpropylamino)sulfonyl]-1(R)-methylbutyl]benzenesulfonamide]

Same assay, conditions: Homo sapiens, 16 h, transfected H4 cells stably expressing APP; approx. 16 h incubation; amyloid β in medium by ELISA; read-out: ACTIVITY (IC50, inhibition of amyloid β production)

Row | IC50 | Compound
12 | 100 to 500 nM | O=S(=O)(c1ccc(Cl)cc1)N(Cc1ccccc1Cn1ccnc1)c1cc(F)ccc1F [Example 772, 4-chloro-N-(2,5-difluorophenyl)-N-[2-(1H-imidazol-1-ylmethyl)benzyl]benzenesulfonamide]

Same assay, conditions: Homo sapiens, 16 h, transfected H4 cells stably expressing APP; approximately 16 hours incubation; amyloid β in medium by ELISA; Table B; read-out: ACTIVITY (IC50, inhibition of amyloid β production)

Row | IC50 | Compound
13 | 50 to 100 nM | C[C@H](c1ccc(F)cc1CCOC(=O)NCc1ccc(F)cc1)N(c1cc(F)ccc1F)S(=O)(=O)c1ccc(Cl)cc1 [Example 419, 2-[2-((1R)-1-{[(4-chlorophenyl)sulfonyl]-2,5-difluoroanilino}ethyl)-5-fluorophenyl]ethyl 4-fluorobenzylcarbamate]

Same assay, conditions: Homo sapiens, 16 h, transfected H4 cells stably expressing APP; approximately 16 hours incubation; amyloid β in medium by ELISA; read-out: ACTIVITY (IC50, inhibition of amyloid β production)

Row | Compound | IC50
14 | O=S(=O)(c1ccc(Cl)cc1)N(Cc1ccccc1OCCCN1CCCCC1)C1CCOCC1 [Example 986, 4-chloro-N-{2-[3-(1-piperidinyl)propoxy]benzyl}-N-tetrahydro-2H-pyran-4-ylbenzenesulfonamide hydrochloride] | > 500 nM
15 | O=S(=O)(c1ccc(Cl)cc1)N(Cc1ccccc1OCCCN1CCCC(O)C1)c1ccccc1 (stereo not shown) [Example 915, 4-chloro-N-{2-[3-(3-hydroxy-1-piperidinyl)propoxy]benzyl}-N-phenylbenzenesulfonamide hydrochloride] | > 500 nM
16 | O=[N+]([O-])c1ccc(CN(Cc2ccccc2OCCCN2CCCCC2)S(=O)(=O)c2ccc(Cl)cc2)cc1 [Example 998, 4-chloro-N-(4-nitrobenzyl)-N-{2-[3-(1-piperidinyl)propoxy]benzyl}benzenesulfonamide hydrochloride] | > 500 nM
17 | CC1(O)CCN(CCCOc2ccccc2CN(c2ccccc2)S(=O)(=O)c2ccc(Cl)cc2)CC1 [Example 965, 4-chloro-N-{2-[3-(4-hydroxy-4-methyl-1-piperidinyl)propoxy]benzyl}-N-phenylbenzenesulfonamide hydrochloride] | > 500 nM

Now from value to compound:

Row | IC50 | Compound
18 | 100 to 500 nM | O=S(=O)(c1ccc(Cl)cc1)N(Cc1ccccc1OCCCN1CCCCC1)CC1CCCC1 [Example 848, 4-chloro-N-(cyclopentylmethyl)-N-{2-[3-(1-piperidinyl)propoxy]benzyl}benzenesulfonamide hydrochloride]
19 | 100 to 500 nM | CC#CCCCN(Cc1ccccc1OCCCN1CCCCC1)S(=O)(=O)c1ccc(Cl)cc1 [Example 842, 4-chloro-N-(4-hexynyl)-N-{2-[3-(1-piperidinyl)propoxy]benzyl}benzenesulfonamide hydrochloride]
20 | > 500 nM | O=C(c1ccc(OC(F)(F)F)cc1)N1CCCCC1CCOc1ccccc1CN(c1cc(F)ccc1F)S(=O)(=O)c1ccc(Cl)cc1 (stereo not shown) [Example 1033, 4-chloro-N-(2,5-difluorophenyl)-N-[2-(2-{1-[4-(trifluoromethoxy)benzoyl]-2-piperidinyl}ethoxy)benzyl]benzenesulfonamide]

Same assay, conditions: Table B; transfected H4 cells stably expressing APP; approximately 16 hours incubation; amyloid β in medium by ELISA; read-out: ACTIVITY (inhibitory concentration IC50, inhibition of amyloid β production)

Row | Compound | IC50
21 | O=[N+]([O-])c1cc(Cl)ccc1COC1CCCCO1 (stereo not shown) [Example 2, 4-Chloro-2-nitro-1-[[(tetrahydro-2H-pyran-2-yl)oxy]methyl]benzene] | ≤ 25 nM

Same assay, conditions: read-out: ACTIVITY (inhibitory concentration IC50, inhibition of amyloid β production)

Row | Compound | IC50
22 | CC(c1ccccc1OCCCN1CCCCC1)N(c1cc(F)ccc1F)S(=O)(=O)c1ccc(Cl)cc1 (stereo not shown) [Example 236, 4-Chloro-N-(2,5-difluorophenyl)-N-(1-{2-[3-(1-piperidinyl)propoxy]phenyl}ethyl)benzenesulfonamide Hydrochloride] | 25 to 50 nM

Same assay, conditions: transfected H4 cells stably expressing APP constructs; approximately 16 hours incubation; amyloid β in medium by ELISA; read-out: ACTIVITY (IC50, inhibition of amyloid β production)

Row | Compound | IC50
23 | 4-chloro-2-({[(4-chlorophenyl)sulfonyl]anilino}methyl)phenyl trifluoromethanesulfonate [Example 1090] | > 10000 nM
24 | CCN(CCCn1ccnc1)C(=O)OC[C@@H](C)N(c1cc(Cl)ccc1Cl)S(=O)(=O)c1ccc(Cl)cc1 [Example 1247, 4-Chloro-N-(2,5-dichlorophenyl)-N-[2-[[[N′-[3-(1H-imidazol-1-yl)propyl]-N′-ethylamino]carbonyl]oxy]-(R)-1-methylethyl]benzenesulfonamide] | ≤ 25 nM

Same assay, conditions: transfected H4 cells stably expressing APP; approx. 16 h incubation; amyloid β in medium by ELISA; read-out: ACTIVITY (IC50, inhibition of amyloid β production)

Row | IC50 | Compound
25 | 100 to 500 nM | 2-[2-((1R)-1-{[(4-chlorophenyl)sulfonyl]-2,5-difluoroanilino}ethyl)phenyl]ethyl phenylcarbamate [Example 762]
26 | 100 to 500 nM | CC(c1ccccc1OCCCNC(=O)c1cccc(F)c1)N(c1cc(F)ccc1F)S(=O)(=O)c1ccc(Cl)cc1 (stereo not shown) [Example 761]
27 | 100 to 500 nM | 2-({[(4-chlorophenyl)sulfonyl]-2,5-difluoroanilino}methyl)phenyl acrylate [Example 681]
28 | 100 to 500 nM | (2Z)-N-{3-[2-(1-{[(4-chlorophenyl)sulfonyl]-2,5-difluoroanilino}ethyl)phenoxy]propyl}-3-phenyl-2-propenamide [Example 732]

Row | Compound | IC50
29 | C[C@H](c1ccccc1COC(=O)NCc1ccc2c(c1)OCO2)N(c1cc(F)ccc1F)S(=O)(=O)c1ccc(Cl)cc1 [Example 673, 2-((1R)-1-{[(4-chlorophenyl)sulfonyl]-2,5-difluoroanilino}ethyl)benzyl 1,3-benzodioxol-5-ylmethylcarbamate] | 100 to 500 nM

Same assay, conditions: transfected H4 cells stably expressing APP; approximately 16 hours incubation; amyloid β in medium by ELISA; Table B; read-out: ACTIVITY (IC50, inhibition of amyloid β production)

Row | Compound | IC50
30 | O=S1(=O)c2cccc3cccc(c23)N1Cc1ccccc1OCCCN1CCCCC1 [Example 269, 2-{2-[3-(1-piperidinyl)propoxy]benzyl}-2H-naphtho[1,8-cd]isothiazole 1,1-Dioxide Hydrochloride] | 25 to 50 nM
31 | CCCN(CCC)C(=O)CCCc1cc(F)ccc1[C@@H](C)N(c1cc(F)ccc1F)S(=O)(=O)c1ccc(Cl)cc1 [Example 500, 4-[2-((1R)-1-{[(4-chlorophenyl)sulfonyl]-2,5-difluoroanilino}ethyl)-5-fluorophenyl]-N,N-dipropylbutanamide] | 100 to 500 nM

Same assay, conditions: transfected H4 cells stably expressing APP; approximately 16 hours incubation; amyloid β in medium by ELISA; read-out: ACTIVITY (IC50, inhibition of amyloid β production)

Row | Compound | IC50
32 | CC(=O)Nc1nc(C)c(S(=O)(=O)N(Cc2ccccc2OCCCN2CCCCC2)c2cc(Cl)ccc2Cl)s1 [Example 1022, N-{5-[(2,5-dichloro{2-[3-(1-piperidinyl)propoxy]benzyl}anilino)sulfonyl]-4-methyl-1,3-thiazol-2-yl}acetamide hydrochloride] | > 500 nM
33 | 2-((1R)-1-{[(4-chlorophenyl)sulfonyl]-2,5-difluoroanilino}ethyl)benzyl benzylcarbamate [Example 825] | 100 to 500 nM
34 | S-ethyl 4-[2-(1-{[(4-chlorophenyl)sulfonyl]-2,5-difluoroanilino}ethyl)phenoxy]ethyl(ethyl)thiocarbamate [Example 830] | 100 to 500 nM
